Source: ChEMBL document CHEMBL1201862, “PubChem BioAssay data set” (2004)
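All cell lines were grown in 96-well plates and treated with compound for 48 hours. GI50: concentration for 50% inhibition of growth.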 Activity calls are given as the source filed them. Rule as the data show it: active = GI50 up to about 1.1 µM and inactive = higher.

What was measured:
Assay in all cases: inhibition of tumour cell growth, NCI panel, 48 h
[1] = tested on: SNB-19
[2] = tested on: HCC 2998
[3] = tested on: 786-0
[4] = tested on: UACC-257
[5] = tested on: MDA-MB-435
[6] = tested on: T47D
[7] = tested on: TK-10
[8] = tested on: UACC-62
[9] = tested on: A549
[10] = tested on: DU-145
[11] = tested on: CAKI-1
[12] = tested on: HOP-92
[13] = tested on: OVCAR-5
[14] = tested on: OVCAR-3
[15] = tested on: SF-268
[16] = tested on: IGROV-1
[17] = tested on: CCRF-CEM
[18] = tested on: U-251
[19] = tested on: M14
[20] = tested on: NCI-H23

Row | Compound | GI50 [1] | GI50 [2] | GI50 [3] | GI50 [4] | GI50 [5] | GI50 [6] | GI50 [7] | GI50 [8] | GI50 [9] | GI50 [10] | GI50 [11] | GI50 [12] | GI50 [13] | GI50 [14] | GI50 [15] | GI50 [16] | GI50 [17] | GI50 [18] | GI50 [19] | GI50 [20]
1 | Cc1cn(CCCC2=NCCCN2)c(=O)[nH]c1=O | > 100 µM (inactive) | > 100 µM (inactive) | > 100 µM (inactive) | > 100 µM (inactive) | > 100 µM (inactive) | > 100 µM (inactive) | > 100 µM (inactive) | > 100 µM (inactive) | > 100 µM (inactive) | > 100 µM (inactive) | > 100 µM (inactive) | > 100 µM (inactive) | > 100 µM (inactive) | > 100 µM (inactive) | > 100 µM (inactive) | > 100 µM (inactive) | > 100 µM (inactive) | > 100 µM (inactive) | > 100 µM (inactive) | > 100 µM (inactive)
2 | Cc1ccc(/C=C2\N=C(N3CCCC(CO)C3)NC2=O)cc1 (stereo not given) | > 100 µM (inactive) | > 100 µM (inactive) | > 100 µM (inactive) | > 100 µM (inactive) | > 100 µM (inactive) | > 100 µM (inactive) | > 100 µM (inactive) | > 100 µM (inactive) | > 100 µM (inactive) | > 100 µM (inactive) | > 100 µM (inactive) | > 100 µM (inactive) | > 100 µM (inactive) | > 100 µM (inactive) | > 100 µM (inactive) | > 100 µM (inactive) | > 100 µM (inactive) | > 100 µM (inactive) | > 100 µM (inactive) | > 100 µM (inactive)
3 | O=C(Nc1nncs1)NS(=O)(=O)n1cnc2ccccc21 | > 100 µM (inactive) | > 100 µM (inactive) | > 100 µM (inactive) | > 100 µM (inactive) | > 100 µM (inactive) | > 100 µM (inactive) | > 100 µM (inactive) | > 100 µM (inactive) | > 100 µM (inactive) | > 100 µM (inactive) | > 100 µM (inactive) | > 100 µM (inactive) | > 100 µM (inactive) | > 100 µM (inactive) | > 100 µM (inactive) | > 100 µM (inactive) | > 100 µM (inactive) | > 100 µM (inactive) | > 100 µM (inactive) | > 100 µM (inactive)
4 | O=C(OC12CC3CC(CC(C3)C1)C2)c1ccc(NCc2cc(O)ccc2O)cc1 | 2.31 µM (inactive) | 1.7 µM (inactive) | 1.15 µM (inactive) | 1.24 µM (inactive) | 1.27 µM (inactive) | 0.262 µM (active) | 0.885 µM (active) | 1.3 µM (inactive) | 3.97 µM (inactive) | 3.85 µM (inactive) | 0.301 µM (active) | 0.34 µM (active) | 1.73 µM (inactive) | 0.743 µM (active) | 1.75 µM (inactive) | 0.109 µM (active) | 0.0383 µM (active) | 0.701 µM (active) | 1.44 µM (inactive) | 1.07 µM (active)
5 | Oc1[nH]c(Nc2cccc(Cl)c2)nc2ncnc1-2 | > 100 µM (inactive) | 76.6 µM (inactive) | > 100 µM (inactive) | > 100 µM (inactive) | 83.8 µM (inactive) | 44.9 µM (inactive) | > 100 µM (inactive) | 63.7 µM (inactive) | > 100 µM (inactive) | 74.6 µM (inactive) | > 100 µM (inactive) | 83 µM (inactive) | > 100 µM (inactive) | 48.4 µM (inactive) | > 100 µM (inactive) | 80.4 µM (inactive) | 71.4 µM (inactive) | > 100 µM (inactive) | 95.7 µM (inactive) | > 100 µM (inactive)
6 | CCN(CC)CCCC(C)Nc1c2ccc(Cl)cc2nc2ccc(OC)cc12 (stereo not given) | 5.36 µM (inactive) | 1.36 µM (inactive) | 0.993 µM (active) | 1.85 µM (inactive) | 1.47 µM (inactive) | 2.31 µM (inactive) | 3.13 µM (inactive) | 1.54 µM (inactive) | 1.65 µM (inactive) | 3.56 µM (inactive) | 1.59 µM (inactive) | 1.14 µM (inactive) | 2 µM (inactive) | 2.85 µM (inactive) | 2.24 µM (inactive) | 1.76 µM (inactive) | 1 µM (active) | 1.29 µM (inactive) | 1.81 µM (inactive) | 1.61 µM (inactive)
7 | Cc1cc(O)c2c(c1O)C(=O)c1c(O)ccc(O)c1C2=O [Cynodontin] | > 100 µM (inactive) | > 100 µM (inactive) | 82 µM (inactive) | > 100 µM (inactive) | > 100 µM (inactive) | > 100 µM (inactive) | > 100 µM (inactive) | > 100 µM (inactive) | > 100 µM (inactive) | > 100 µM (inactive) | > 100 µM (inactive) | > 100 µM (inactive) | > 100 µM (inactive) | > 100 µM (inactive) | > 100 µM (inactive) | > 100 µM (inactive) | > 100 µM (inactive) | > 100 µM (inactive) | > 100 µM (inactive) | > 100 µM (inactive)
